Publication PMC8705538, “Discovery of SARS-CoV-2 Nsp14 and Nsp16 Methyltransferase Inhibitors by High-Throughput Virtual Screening” (Pharmaceuticals, 2021)

Columns and labels:
[1] = target: SARS-CoV-2 nsp14 (Severe acute respiratory syndrome coronavirus 2, UniProt P0DTD1); experiment: biochemical; conditions: 100 μM
[2] = target: SARS-CoV-2 nsp16/nsp10 (Severe acute respiratory syndrome coronavirus 2, UniProt P0DTD1); experiment: biochemical; conditions: 100 μM

SMILES | Percent inhibition at 100 μM, nsp14 [1] [%] | Percent inhibition at 100 μM, nsp16 [2] [%]
NS(=O)(=O)c1ccc(NC(=O)COC(=O)c2n[nH]c3ccccc23)cc1 [ZINC000005360401] | -15 ±7 | 3 ±1
Nc1nc2c(c(=O)[nH]1)CC(CCc1ccc(C(=O)NC(CCC(=O)O)C(=O)O)cc1)CN2 (stereo not drawn) [ZINC000077301924] | 5 ±6 | 15 ±10
CCOc1ccccc1OCC(=O)N1CCCC(c2nc3ccccc3s2)C1 (stereo not drawn) [Compound 005-679-672] | 6 ±0 | -59 ±2
CCN(Cc1ccncc1)C(=O)CC1C(=O)NCCN1CCCc1ccccc1 (stereo not drawn) [ZINC000011821342] | 5 ±5 | 17 ±11
CCc1n[nH]c2c1CN(C(=O)c1cccc(-c3cc(O)nc(N)n3)c1)CC2 [ZINC000426470786] | 1 ±6 | 8 ±5
Cc1ccc(Oc2ncccc2CNC(=O)c2cnc(O)cc2O)cn1 [ZINC000067754517] | 11 ±3 | 39 ±8
O=C(CCc1c[nH]c2ccccc12)N1CCCC1c1ccc[nH]1 (stereo not drawn) [ZINC000019688789] | 2 ±0 | -10 ±1
O=C(Nc1ccc(N2CCOCC2)cc1)c1oc2ccccc2c1CSc1nnc[nH]1 [ZINC000003404544] | 3 ±2 | 6 ±8
Cn1nccc1CCC(=O)N1CCCC(c2nc3ccccc3s2)C1 (stereo not drawn) [Compound 042-575-680] | 8 ±1 | 33 ±9
O=C(CN1C(=O)c2ccccc2N2C(=O)c3ccccc3C12)N1CCc2c([nH]c3ccccc23)C1 (stereo not drawn) [ZINC000604419204] | 5 ±11 | -3 ±5
Cc1cc(=O)n2c(n1)NC(N1CCOCC1)=NC2c1ccccc1 (stereo not drawn) [ZINC000104279901] | -14 ±2 | -33 ±4
O=C(CCc1n[nH]c2c1CCCC2)NCc1cc(O)ncn1 [ZINC000952975967] | 2 ±7 | -24 ±4
Nc1ncnc2c1ncn2CC(O)CO (stereo not drawn) [ZINC000000370772] | -9 ±12 | -34 ±9
O=C(C1CCc2sc(-c3ccncc3)nc2C1)N1CCc2c(nc[nH]c2=O)C1 (stereo not drawn) [ZINC1772809556] | 15 ±9 | 5 ±8
O=C(CCn1cncn1)N1CCCC1c1nc2ccccc2s1 (stereo not drawn) [Compound 009-447-345] | 2 ±0 | 1 ±1
CC(C)N(CC1OC(n2cnc3c(N)ncnc32)C(O)C1O)C1CC(CCc2nc3cc(C(C)(C)C)ccc3[nH]2)C1 (stereo not drawn) [ZINC000100074350] | 30 ±4 | 68 ±7
O=C(Cc1csc(SCC(=O)c2ccccc2)n1)Nc1ccccc1 [Compound 005-296-365] | 27 ±2 | -17 ±4
COc1c(C)c2c(c(O)c1CC=C(C)CCC(=O)Nc1nnc[nH]1)C(=O)OC2 [ZINC000096115284] | 5 ±4 | -68 ±6
CC[C@H](C)[C@H](N)C(=O)NS(=O)(=O)OC[C@H]1O[C@@H](n2cnc3c(N)ncnc32)[C@H](O)[C@@H]1O [ZINC000013488353] | 8 ±5 | 34 ±6
Cn1cc(CCC(=O)N2CCCC(c3nc4ccccc4s3)C2)cn1 (stereo not drawn) [Compound 046-706-934] | 5 ±3 | -113 ±16
O=C(Cc1ccc2c(c1)CCO2)Nc1ccc2nc[nH]c(=O)c2c1 [ZINC000170622294] | -2 ±2 | -6 ±3
O=C(CCc1ccncc1)NC(c1ccccc1)C1CC(O)C1 (stereo not drawn) [ZINC000252528037] | 13 ±2 | 36 ±3
CC1=C(C(=O)O)N2C(=O)C(NC(=O)C(N)c3ccc(O)cc3)C2SC1 (stereo not drawn) [ZINC000003830391] | -18 ±6 | -8 ±1
O=C(Nc1ccccc1-c1ccccc1)C1CCCN(c2ccc(-n3cncn3)nn2)C1 (stereo not drawn) [ZINC000096124096] | 9 ±7 | 10 ±1

SMILES | Percent inhibition at 100 μM, nsp14 [1] [%] | Percent inhibition at 100 μM, nsp16 [2] [%]
O=C(CCc1nc2cc(Cl)ccc2[nH]1)N1CC[C@H](n2c(=O)[nH]c3cccnc32)C1 [ZINC1548405210] | 6 ±2 | 15 ±2
Cc1[nH]c(-c2ccccc2)nc1C(=O)NCc1ccc2[nH]c(=O)[nH]c2c1 [ZINC000680227150] | 19 ±7 | 23 ±5
O=C(NCc1cccnc1)C1CC(NCc2c(F)cccc2F)CN1Cc1ccccc1 (stereo not drawn) [ZINC000020999776] | -2 ±4 | 8 ±5
O=C(c1ccc(Cn2ccnc2)o1)N1CCc2[nH]c3ccc(Cl)cc3c2C1 [ZINC000072429175] | 0 ±4 | 6 ±5
CN1CC(=O)N(c2cccc(NC(=O)NC[C@H](O)CO)c2)C1=O [ZINC000426716892] | -1 ±2 | 30 ±2
CC(C)CC(C(=O)OCC(=O)Nc1cccc(Cl)c1)N1C(=O)C2CC=CCC2C1=O (stereo not drawn) [ZINC000019078629] | 8 ±3 | 37 ±9
Cn1nc(CC(=O)NCCCc2nnc3ccccn23)c2ccccc2c1=O [ZINC000095478169] | -6 ±2 | -53 ±8
O=C(CC1(C(=O)O)CC(c2ccc(F)cc2)=NO1)Nc1cccc(C(=O)O)c1 (stereo not drawn) [ZINC000072406141] | 14 ±7 | 31 ±8
COc1ccc(N2C(=O)CC(c3c(C)[nH]n(-c4nc5ccccc5s4)c3=O)C2=O)cc1 (stereo not drawn) [ZINC000018085229] | 11 ±6 | 17 ±6
CC(C)Cn1c(CNC(=O)c2ccccc2C(F)(F)F)nnc1SCc1ccncc1 [ZINC000012152850] | 2 ±8 | 19 ±6
CC(=O)c1cnc(NC(C)c2nnc(CC(=O)O)[nH]2)nc1C (stereo not drawn) [ZINC1772709012] | 16 ±13 | 32 ±8
Cc1nc(CC(=O)N2CCCC(c3nc4ccccc4s3)C2)cs1 (stereo not drawn) [Compound 021-760-906] | 10 ±2 | 28 ±6
O=C(CCc1ccc(O)cc1)NC(c1ccc2c(c1)CCO2)C1CC(O)C1 (stereo not drawn) [ZINC000220681335] | 0 ±2 | 10 ±5
O=C(CP(=O)(O)O)N=c1[nH]c2ccc(Cl)cc2s1 [ZINC000020502712] | 7 ±6 | 17 ±7
NC(=O)Cn1cnc2c(cnn2CCO)c1=O [ZINC000004940485] | 2 ±0 | 6 ±6
CC(=O)Nc1ccn(C2OC(CO)C(O)C2O)c(=O)n1 (stereo not drawn) [ZINC000001078602] | -15 ±5 | -9 ±1
CCOc1c(Cl)cc(C(=O)Nc2cccc(C(=O)O)c2)cc1Cl [ZINC000004649202] | -1 ±3 | 14 ±5
O=C(Cc1nnc(O)c2ccccc12)NCC(O)c1ccccc1 (stereo not drawn) [ZINC000009340377] | 5 ±4 | 2 ±5
O=C(CCn1cncn1)N1CCC(c2nc3ccccc3s2)CC1 [Compound 009-436-708] | 2 ±1 | -114 ±6
O=C(CC1(O)C(=O)N(Cc2ccc3c(c2)OCO3)c2ccccc21)c1ccc(F)cc1 (stereo not drawn) [ZINC000000783765] | -10 ±3 | -3 ±4
NS(=O)(=O)c1ccc(NC2=NC(=O)C(CC(=O)O)S2)cc1 (stereo not drawn) [ZINC000001797008] | 0 ±2 | -35 ±10
CC(=O)c1cccc(OCc2cc(C(=O)NCC(N)=O)n[nH]2)c1 [ZINC000067920483] | 2 ±2 | -1 ±3
COc1ccc(CCNC(=O)C2C3C=CC4(CN(c5ccc6c(c5)OCO6)C(=O)C24)O3)cc1 (stereo not drawn) [ZINC000012895535] | 5 ±2 | -15 ±6
Cc1nn(C)c2ncc(NC(=O)c3ccccc3-c3ncc(-c4ccc(F)cc4)o3)cc12 [ZINC000032754717] | 14 ±6 | -24 ±9
